Assay results published in patent US20260193116A1, “MEMBRANE TREATMENT METHOD, BIOFOULING INHIBITION METHOD, AND ENDOTOXIN PRODUCTION INHIBITION METHOD IN WATER SYSTEM” (KURITA WATER INDUSTRIES LTD., priority 2022, published 2026).

Tests used:
[1] = test system: endotoxin
[2] = test system: endotoxin; remark: listed apart in the source

Molecule	Endotoxin concentration compared to the treatments with chloramine, DBNPA and Cl-MIT alone [1] [%]	Discharge amount of endotoxin compared to raw water and Control (in words) [2]	Endotoxin concentration [1] [EU/mL]
O=S(=O)(O)NCl.[Na] [Chlorosulfamic acid, sodium monochlorosulfamic acid]	≤ 50	suppress the discharge amount of endotoxin to be low compared to the raw water and Control	
N#CC(Br)(Br)C(N)=O [DBNPA, 2,2-dibromo-3-nitrilopropionamide, reference compound]			19.1
Chloramine [reference compound]			31.1
